Results as given in patent US10925856B2, “Methods and compositions involving bucindolol for the treatment of atrial fibrillation” (priority 2018, dated 2021).
Marks after values point to notes of the source that are not given here.

Key:
[1] = in vivo; cited from earlier work
plasma norepinephrine = test: Plasma norepinephrine (HPLC with electrochemical detection); details: for Norepinephrine, ΔWeek 12 Mean ± SEM / Norepinephrine, ΔWeek 12 Median / Norepinephrine, ΔWeek 24 Mean ± SEM / Norepinephrine, ΔWeek 24 Median: change from baseline
[2] = Systolic blood pressure and heart rate by scheduled visit; format: in vivo, human
From the text: Block is defined as the first of any of the following: 1) 3rd degree heart block (complete heart block); 2) any 2nd degree heart block with the presence of symptoms attributable to, and temporally correlated with the occurrence of heart block which include any of the following: Near-fainting or fainting (syncope)/Dizziness; Weakness or Fatigue; Shortness of breath; Chest pain; or 3) 2nd or 3rd degree heart block requiring implantation of a permanent pacemaker (with or without defibrillator). • Data source: • CVEVENT and AE eCRF forms. • Overall incidence and severity of treatment-emergent AEs/SAEs over time during the Total Study Period. Also events associated with device implantation. […] The AEs of special interest will be tabulated according to the following characteristics. • Development of treatment-emergent neoplastic conditions. • Progression or worsening of pre-study neoplastic conditions. • Progression or worsening of treatment-emergent neoplastic conditions. • Data source: • AE, NEOPLHX and NEOPLAS eCRF forms. • Clinical Chemistry and Hematology. • Visit collection: screen, start of follow-up Week 0 (protocol versions 1 and 2), Week 4 (protocol versions 3 and 4), Week 12 (protocol versions 3 and 4), Week 24, every 24 weeks during extension, end of treatment and end of study. […] Randomization Visit measurement prior to first dose will serve as the baseline. Will be analyzed at Week 0, 4, 12 and 24 visits as well as end of treatment and end of study. • Change from baseline to each analysis visit will be calculated and analyzed with descriptive statistics. • The numbers and percentages of patients with QTc increase from baseline exceeding 60 ms at any time point during the study. • Data source: • ECG eCRF form. • Vital signs and weight (data source: VITALS eCRF form). • Measured at every in-clinic visit. Randomization Visit measurement prior to first dose will serve as the baseline. Will be analyzed at Week 0, 4, 12 and 24 visits as well as end of treatment and end of study. • Change from baseline to each analysis visit will be calculated and analyzed with descriptive statistics. • Data source: • VITALS eCRF form. • Proportion of patients attaining target study drug dose during the Drug Titration Period. Will be calculated for all patients, those receiving β-blocker therapy prior to randomization and those not previously receiving β-blocker therapy. • Data Sources: • VISREC and DRUGLOG eCRF forms.

[3] = Europe excluding Hungary (n = 48)

SMILES: CC(C)(Cc1c[nH]c2ccccc12)NCC(O)COc1ccccc1C#N (stereo not drawn) [bucindolol, 2-(3-(1-(1H-indol-3-yl)-2-methylpropan-2-ylamino)-2-hydroxypropoxy)benzonitrile]
- Bioavailability [1]: approximately 30%
- Plasma norepinephrine, Week 4 Mean (plasma norepinephrine; Canada): 583 pg/mL
- Plasma norepinephrine, Week 4 Median (plasma norepinephrine; Canada): 551 pg/mL
- Plasma norepinephrine, change from baseline to Week 4, Mean ±SEM (plasma norepinephrine; Canada): -59 pg/mL
- Plasma norepinephrine, change from baseline to Week 4, Median (plasma norepinephrine; Canada): -1 pg/mL
- Norepinephrine, Baseline Mean ± SD (plasma norepinephrine; Canada (n = 59)): 642 ± 341 pg/mL
- Norepinephrine, Baseline Median (plasma norepinephrine; Canada (n = 59)): 522 pg/mL
- Norepinephrine, Week 12 Mean ± SD (plasma norepinephrine; Canada (n = 59)): 528 ± 252 pg/mL
- Norepinephrine, Week 12 Median (plasma norepinephrine; Canada (n = 59)): 484 pg/mL
- Norepinephrine, Week 24 Mean ± SD (plasma norepinephrine; Canada (n = 59)): 623 ± 276 pg/mL
- Norepinephrine, Week 24 Median (plasma norepinephrine; Canada (n = 59)): 564 pg/mL
- Change in NE at Week 4, median (Q1, Q3) (plasma norepinephrine; Entire Cohort): −101 (−241, 43)* pg/ml
- Plasma norepinephrine, Week 4 Mean (plasma norepinephrine; Entire Cohort): 563 pg/mL
- Plasma norepinephrine, Week 4 Median (plasma norepinephrine; Entire Cohort): 500 pg/mL
- Plasma norepinephrine, change from baseline to Week 4, Mean ±SEM (plasma norepinephrine; Entire Cohort): -124 ± 26 pg/mL
- Plasma norepinephrine, change from baseline to Week 4, Median (plasma norepinephrine; Entire Cohort): -101 pg/mL
- Norepinephrine, Baseline Mean ± SD (plasma norepinephrine; Entire Cohort (n = 267)): 682 ± 349 pg/mL
- Norepinephrine, Baseline Median (plasma norepinephrine; Entire Cohort (n = 267)): 607 pg/mL
- Norepinephrine, Week 12 Mean ± SD (plasma norepinephrine; Entire Cohort (n = 267)): 570 ± 275 pg/mL
- Norepinephrine, Week 12 Median (plasma norepinephrine; Entire Cohort (n = 267)): 520 pg/mL
- Norepinephrine, Week 24 Mean ± SD (plasma norepinephrine; Entire Cohort (n = 267)): 631 ± 329 pg/mL
- Norepinephrine, Week 24 Median (plasma norepinephrine; Entire Cohort (n = 267)): 545 pg/mL
- Plasma norepinephrine, change from baseline to Week 4, Mean ±SEM (plasma norepinephrine; Entire Cohort, listed as Buc): -124 pg/mL
- Plasma norepinephrine, Week 4 Mean (plasma norepinephrine; Europe excluding Hungary): 604 pg/mL
- Plasma norepinephrine, Week 4 Median (plasma norepinephrine; Europe excluding Hungary): 540 pg/mL
- Plasma norepinephrine, change from baseline to Week 4, Mean ±SEM (plasma norepinephrine; Europe excluding Hungary): -126 pg/mL
- Plasma norepinephrine, change from baseline to Week 4, Median (plasma norepinephrine; Europe excluding Hungary): -129 pg/mL
- Norepinephrine, Baseline Mean ± SD (plasma norepinephrine; [3]): 753 ± 375 pg/mL
- Norepinephrine, Baseline Median (plasma norepinephrine; [3]): 691 pg/mL
- Norepinephrine, Week 12 Mean ± SD (plasma norepinephrine; [3]): 683 ± 318 pg/mL
- Norepinephrine, Week 12 Median (plasma norepinephrine; [3]): 611 pg/mL
- Norepinephrine, Week 24 Mean ± SD (plasma norepinephrine; [3]): 798 ± 459 pg/mL
- Norepinephrine, Week 24 Median (plasma norepinephrine; [3]): 729 pg/mL
- Plasma norepinephrine, Week 4 Mean (plasma norepinephrine; Hungary): 576 pg/mL
- Plasma norepinephrine, Week 4 Median (plasma norepinephrine; Hungary): 525 pg/mL
- Plasma norepinephrine, change from baseline to Week 4, Mean ±SEM (plasma norepinephrine; Hungary): -208 pg/mL
- Plasma norepinephrine, change from baseline to Week 4, Median (plasma norepinephrine; Hungary): −213* pg/ml
- Norepinephrine, Baseline Mean ± SD (plasma norepinephrine; Hungary (n = 33)): 767 ± 270 pg/mL
- Norepinephrine, Baseline Median (plasma norepinephrine; Hungary (n = 33)): 792 pg/mL
- Norepinephrine, Week 12 Mean ± SD (plasma norepinephrine; Hungary (n = 33)): 638 ± 254 pg/mL
- Norepinephrine, Week 12 Median (plasma norepinephrine; Hungary (n = 33)): 690 pg/mL
- Norepinephrine, Week 24 Mean ± SD (plasma norepinephrine; Hungary (n = 33)): 711 ± 267 pg/mL
- Norepinephrine, Week 24 Median (plasma norepinephrine; Hungary (n = 33)): 736 pg/mL
- Plasma norepinephrine, Week 4 Mean (plasma norepinephrine; U.S.): 529 pg/mL
- Plasma norepinephrine, Week 4 Median (plasma norepinephrine; U.S.): 473 pg/mL
- Plasma norepinephrine, change from baseline to Week 4, Mean ±SEM (plasma norepinephrine; U.S.): -136 pg/mL
- Plasma norepinephrine, change from baseline to Week 4, Median (plasma norepinephrine; U.S.): -101 pg/mL
- Norepinephrine, Baseline Mean ± SD (plasma norepinephrine; U.S. (n = 127)): 650 ± 362 pg/mL
- Norepinephrine, Baseline Median (plasma norepinephrine; U.S. (n = 127)): 598 pg/mL
- Norepinephrine, Week 12 Mean ± SD (plasma norepinephrine; U.S. (n = 127)): 529 ± 267 pg/mL
- Norepinephrine, Week 12 Median (plasma norepinephrine; U.S. (n = 127)): 466 pg/mL
- Norepinephrine, Week 24 Mean ± SD (plasma norepinephrine; U.S. (n = 127)): 585 ± 336 pg/mL
- Norepinephrine, Week 24 Median (plasma norepinephrine; U.S. (n = 127)): 498 pg/mL
- Degree of reduction in NE by median values (plasma norepinephrine; Week 4, Hungary): 213 pg/mL
- Degree of reduction in NE by median values (plasma norepinephrine; Week 4, U.S.): 101 pg/mL
- Degree of reduction in NE by median values (plasma norepinephrine; Week 4, rest of Europe): 121 pg/mL
- Reduction in NE (plasma norepinephrine; Week 12, Canada): 100 pg/mL
- Reduction in NE (plasma norepinephrine; Week 24, Canada): 21 pg/mL
- Reduction in NE (plasma norepinephrine; Week 24, Hungary): 193 pg/mL
- Reduction in NE (plasma norepinephrine; Week 24, U.S.): 46 pg/mL
- Norepinephrine, ΔWeek 12 Mean ± SEM (plasma norepinephrine; Canada (n = 59)): -133 ± 48 pg/mL
- Norepinephrine, ΔWeek 12 Median (plasma norepinephrine; Canada (n = 59)): -100 pg/mL
- Norepinephrine, ΔWeek 24 Mean ± SEM (plasma norepinephrine; Canada (n = 59)): -38 ± 54 pg/mL
- Norepinephrine, ΔWeek 24 Median (plasma norepinephrine; Canada (n = 59)): -21 pg/mL
- Norepinephrine, ΔWeek 12 Mean ± SEM (plasma norepinephrine; Entire Cohort (n = 267)): -118 ± 27 pg/mL
- Norepinephrine, ΔWeek 12 Median (plasma norepinephrine; Entire Cohort (n = 267)): -100 pg/mL
- Norepinephrine, ΔWeek 24 Mean ± SEM (plasma norepinephrine; Entire Cohort (n = 267)): -64 ± 31 pg/mL
- Norepinephrine, ΔWeek 24 Median (plasma norepinephrine; Entire Cohort (n = 267)): -47 pg/mL
- Norepinephrine, ΔWeek 12 Mean ± SEM (plasma norepinephrine; [3]): -34 ± 51 pg/mL
- Norepinephrine, ΔWeek 12 Median (plasma norepinephrine; [3]): -55 pg/mL
- Norepinephrine, ΔWeek 24 Mean ± SEM (plasma norepinephrine; [3]): 56 ± 152 pg/mL
- Norepinephrine, ΔWeek 24 Median (plasma norepinephrine; [3]): -82 pg/mL
- Norepinephrine, ΔWeek 12 Mean ± SEM (plasma norepinephrine; Hungary (n = 33)): -172 ± 63 pg/mL
- Norepinephrine, ΔWeek 12 Median (plasma norepinephrine; Hungary (n = 33)): -171 pg/mL
- Norepinephrine, ΔWeek 24 Mean ± SEM (plasma norepinephrine; Hungary (n = 33)): -132 ± 296 pg/mL
- Norepinephrine, ΔWeek 24 Median (plasma norepinephrine; Hungary (n = 33)): -193 pg/mL
- Norepinephrine, ΔWeek 12 Mean ± SEM (plasma norepinephrine; U.S. (n = 127)): -128 ± 49 pg/mL
- Norepinephrine, ΔWeek 12 Median (plasma norepinephrine; U.S. (n = 127)): -86 pg/mL
- Norepinephrine, ΔWeek 24 Mean ± SEM (plasma norepinephrine; U.S. (n = 127)): -86 ± 40 pg/mL
- Norepinephrine, ΔWeek 24 Median (plasma norepinephrine; U.S. (n = 127)): -46 pg/mL
- Degree of reduction in NE by median values (plasma norepinephrine; week 4, entire cohort): 101 pg/mL
- Reduction in NE (plasma norepinephrine; week 24, entire cohort): 47 pg/mL
- Systolic Blood Pressure, Baseline Mean ± SEM ([2]; Baseline): 124.7 ± 1.3 mmHg
- Heart Rate, Baseline Mean ± SEM ([2]; Baseline, by ECG): 76.5 ± 1.5 bpm
- Systolic Blood Pressure, Mean ± SEM ([2]; Week 4 Change from Baseline): −0.3 ± 1.5 mmHg
- Heart Rate, Mean ± SEM ([2]; Week 4 Change from Baseline, by ECG): 0.1 ± 1.6 bpm
- Systolic Blood Pressure, Mean ± SEM ([2]; Week 12 Change from Baseline): −0.5 ± 1.8 mmHg
- Heart Rate, Mean ± SEM ([2]; Week 12 Change from Baseline, by ECG): −1.5 ± 1.8 bpm
- Systolic Blood Pressure, Mean ± SEM ([2]; Week 24 Change from Baseline): −1.1 ± 1.5 mmHg
- Heart Rate, Mean ± SEM ([2]; Week 24 Change from Baseline, by ECG): 0.1 ± 2.3 bpm
